# Data reported in patent publication US11524944B2, “2-phenylpyrimidine-4-carboxamides as AHR inhibitors” (Bayer Aktiengesellschaft, priority 2017, dated 2022).
# pIC50: −log10 of the molar value.
# Target: T1, Human AhR (Homo sapiens, UniProt P35869)
# T1 construct: host or cells: U87 glioblastoma cells, stably transfected with a DRE firefly luciferase reporter and a constitutive renilla reporter
# T1 sequence (P35869 11-848): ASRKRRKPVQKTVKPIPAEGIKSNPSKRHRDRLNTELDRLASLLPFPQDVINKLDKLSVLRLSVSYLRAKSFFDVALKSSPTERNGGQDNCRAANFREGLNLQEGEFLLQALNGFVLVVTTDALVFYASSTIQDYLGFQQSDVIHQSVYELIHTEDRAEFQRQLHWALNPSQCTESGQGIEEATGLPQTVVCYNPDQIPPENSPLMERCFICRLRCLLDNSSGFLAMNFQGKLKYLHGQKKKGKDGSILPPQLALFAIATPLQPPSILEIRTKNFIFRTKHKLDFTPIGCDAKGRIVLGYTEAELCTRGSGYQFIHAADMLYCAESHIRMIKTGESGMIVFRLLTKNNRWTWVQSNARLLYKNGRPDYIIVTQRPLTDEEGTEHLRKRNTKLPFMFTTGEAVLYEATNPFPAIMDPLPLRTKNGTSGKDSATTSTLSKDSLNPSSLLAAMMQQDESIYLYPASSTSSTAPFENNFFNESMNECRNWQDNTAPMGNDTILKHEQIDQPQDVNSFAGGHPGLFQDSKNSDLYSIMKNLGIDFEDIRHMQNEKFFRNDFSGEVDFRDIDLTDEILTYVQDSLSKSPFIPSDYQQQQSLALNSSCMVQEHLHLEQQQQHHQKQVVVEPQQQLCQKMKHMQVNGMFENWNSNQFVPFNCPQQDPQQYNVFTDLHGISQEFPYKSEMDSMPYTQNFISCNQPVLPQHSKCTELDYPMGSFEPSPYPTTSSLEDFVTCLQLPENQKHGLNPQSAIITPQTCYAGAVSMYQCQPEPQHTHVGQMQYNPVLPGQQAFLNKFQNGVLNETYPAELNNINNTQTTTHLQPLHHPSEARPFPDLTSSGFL
# Assay: Transactivation assay in human cell line (in vitro assay 1): antagonism
# Type: cell-based
# Settings: U87 glioblastoma cells, AHR inducible firefly luciferase reporter (DRE), 150 μM kynurenic acid, 20 hours
# Experimental: Examples were tested in selected biological assays one or more times. When tested more than once, data are reported as either average values or as median values, wherein • the average value, also referred to as the arithmetic mean value, represents the sum of the values obtained divided by the number of times tested, and • the median value represents the middle number of the group of values when ranked in ascending or descending order. If the number of values in the data set is odd, the median is the middle value. If the number of values in the data set is even, the median is the arithmetic mean of the two middle values.
# Transactivation Assay in Human Cell Line (In Vitro Assay 1)
# Transactivation assay was carried out in U87 glioblastoma cells (ATCC) endogenously expressing AHR. In addition the cells were stably transfected with an AHR inducible firefly luciferase reporter gene construct that carried AHR-binding sites (DRE) in its promoter and a renilla reporter gene construct with constitutively active promoter. Kynurenic acid is an endogenous AHR activating ligand and was used to prestimulate test cells prior to testing the antagonistic properties of compounds.
# In Vitro Assay 1: Antagonism in Human Cell Line
# Firefly luciferase and Renilla activity was determined by the DualGlo Luciferase Assay System (Promega, #2920). Renilla activity was used to assess toxic effects of compounds.
row,SMILES,pIC50
1,"CC(C)(O)CNC(=O)c1cc(-c2ccc(Cl)cc2)nc(-c2ccc(F)c(C#N)c2)n1 [Example 52, 6-(4-chlorophenyl)-2-(3-cyano-4-fluorophenyl)-N-(2-hydroxy-2-methylpropyl)pyrimidine-4-carboxamide]",6.95
2,"CC(C)(O)CNC(=O)c1cc(-c2ccc(OC(F)(F)F)cc2)nc(-c2ccc(F)cc2)n1 [Example 13, 2-(4-fluorophenyl)-N-(2-hydroxy-2-methylpropyl)-6-[4-(trifluoromethoxy)phenyl]pyrimidine-4-carboxamide]",7.59
3,"CC(O)C(NC(=O)c1cc(-c2ccc(OC(F)(F)F)cc2)nc(-c2cccc(F)c2)n1)C(F)(F)F (stereo not shown) [Example 91, 2-(3-fluorophenyl)-N-(1,1,1-trifluoro-3-hydroxybutan-2-yl)-6-[4-(trifluoromethoxy)phenyl]pyrimidine-4-carboxamide]",< 4.70
4,"C[C@@H](CO)NC(=O)c1cc(-c2ccc(Cl)cc2)nc(-c2cc(Cl)cc(Cl)c2)n1 [Example 67, 6-(4-chlorophenyl)-2-(3,5-dichlorophenyl)-N-[(2S)-1-hydroxypropan-2-yl]pyrimidine-4-carboxamide]",7.00
5,"Cc1cc(F)cc(-c2nc(C(=O)N[C@@H](C)CO)cc(-c3ccc(Cl)cc3)n2)c1 [Example 77, 6-(4-chlorophenyl)-2-(3-fluoro-5-methylphenyl)-N-[(2S)-1-hydroxypropan-2-yl]pyrimidine-4-carboxamide]",7.58
6,"C[C@@H](CO)NC(=O)c1cc(-c2ccc(OC(F)(F)F)cc2)nc(-c2ccc(Cl)c(Cl)c2)n1 [Example 38, 2-(3,4-dichlorophenyl)-N-[(2S)-1-hydroxypropan-2-yl]-6-[4-(trifluoromethoxy)phenyl]pyrimidine-4-carboxamide]",5.36
7,"C[C@@H](CO)NC(=O)c1cc(-c2ccc(OC(F)(F)F)cc2)nc(-c2cc(F)cc(C#N)c2)n1 [Example 43, 2-(3-cyano-5-fluorophenyl)-N-[(2S)-1-hydroxypropan-2-yl]-6-[4-(trifluoromethoxy)phenyl]pyrimidine-4-carboxamide]",7.67
8,"C[C@@H](CO)NC(=O)c1cc(-c2ccc(Cl)cc2)nc(-c2ccc(OC(F)(F)F)cc2)n1 [Example 73, 6-(4-chlorophenyl)-N-[(2S)-1-hydroxypropan-2-yl]-2-[4-(trifluoromethoxy)phenyl]pyrimidine-4-carboxamide]",5.01
9,"C[C@@H](CO)NC(=O)c1cc(-c2ccc(Cl)cc2)nc(-c2cc(F)cc(C(F)(F)F)c2)n1 [Example 75, 6-(4-chlorophenyl)-2-[3-fluoro-5-(trifluoromethyl)phenyl]-N-[(2S)-1-hydroxypropan-2-yl]pyrimidine-4-carboxamide]",7.01
10,"CC(C)(O)CNC(=O)c1cc(-c2ccc(OC(F)(F)F)cc2)nc(-c2ccc(C(F)F)cc2)n1 [Example 25, 2-[4-(difluoromethyl)phenyl]-N-(2-hydroxy-2-methylpropyl)-6-[4-(trifluoromethoxy)phenyl]pyrimidine-4-carboxamide]",< 4.70
11,"CC(C)(O)CNC(=O)c1cc(-c2ccc(Cl)cc2)nc(-c2cc(F)cc(C#N)c2)n1 [Example 62, 6-(4-chlorophenyl)-2-(3-cyano-5-fluorophenyl)-N-(2-hydroxy-2-methylpropyl)pyrimidine-4-carboxamide]",7.24
12,"CC(C)(O)CNC(=O)c1cc(-c2ccc(Cl)cc2)nc(-c2cc(F)cc(C(F)(F)F)c2)n1 [Example 58, 6-(4-chlorophenyl)-2-[3-fluoro-5-(trifluoromethyl)phenyl]-N-(2-hydroxy-2-methylpropyl)pyrimidine-4-carboxamide]",7.11
13,"CC(C)(O)CNC(=O)c1cc(-c2ccc(OC(F)(F)F)cc2)nc(-c2cc(F)cc(C#N)c2)n1 [Example 26, 2-(3-cyano-5-fluorophenyl)-N-(2-hydroxy-2-methylpropyl)-6-[4-(trifluoromethoxy)phenyl]pyrimidine-4-carboxamide]",7.40
